What was measured:
[1] = molecular target: T1, USP7 (Homo sapiens, UniProt Q93009); assay: DUB activity of USP7 immunoprecipitated from treated Jurkat cells (Ub-EKL assay); assay type: cell-based; conditions: for USP7 catalytic activity returned after washout: Jurkat cells exposed for 2 hours
T1 construct: endogenous in cells; host or cells: Jurkat
Procedure: FIG. 5A-FIG. 5C graphically illustrate that the disclosed USP7 inhibitors of the invention are irreversible inhibitors. Jurkat cells were treated with 10 μM USP7i for indicated time period (FIG. 5A) or pulse treated for 2 h with 10 μM compound 5 (FIG. 5B), washed and incubated for the indicated time period followed by DUB activity measurement of immunoprecipitated USP7 as well as total cell lysate (FIG. 5C) using Ub-EKL assay as described previously (U.S. Pat. No. 8,680,139). A portion of the immunoprecipitated USP7 is separated on 10% SDS-PAGE and immunoblotted with anti-USP7 antibody to detect the level of USP7 protein (shown at the top of graphs in FIG. 5A and FIG. 5B). […] Jurkat cells were exposed to Compound 5 for 2 hours and the compounds were washed away followed by incubation for various time points. Cells were harvested, lysed and their USP7 immunoprecipitated and washed with buffer. […] Jurkat cells were incubated with an exemplary compound of the present invention (e.g., compound 5), washed, and incubated for an additional 0-96 h. USP7 was immunoprecipitated from lysates and USP7 activity measured. […] Total cell deubiquitinase activity can be performed to determine selectivity of these compounds (FIG. 5C). These experiments delineate a simple, powerful biomarker for determining the dose-efficacy relationship in the pre-clinical/clinical evaluation of irreversible USP7 inhibitors. Inhibitors were also tested in cells for effects on various PD markers, including two major USP7 substrates, HDM2 and UHRF1.

[2] = tested on: TC1 lung tumor; assay: TC1 flank tumor model in immunocompetent mice; assay type: in vivo, B6 mice
Procedure: Inhibition was statistically significant at the p<0.05 level (**).
USP7 targeting inhibits flank tumor growth via a Treg-dependent mechanism in immunocompetent mice (FIGS. 8A and 8B). Eight week-old B6 mice were injected with 5×10^5 TC1 tumor cells, and 1 week later, when tumors had reached ˜100 mm^3, mice were implanted with 14 day Alzet pumps containing vehicle or USP7i at doses 0.6 mg/kg, 1 mg/kg, and 6 mg/kg. Tumor growth was measured twice weekly for 2 weeks, and the study continued for an additional time period without further dosing. At sacrifice, spleens, draining lymph nodes (DLN), and tumors can be assessed by flow cytometry, histology, immunohistology and qPCR. Such studies can be performed in both immunocompetent and immunodeficient mice.

[3] = molecular target: USP7 core C223A (Homo sapiens, UniProt Q93009, C223A); assay: LC-MS detection of covalent adduct with USP7 core active site cysteine mutant C223A; assay type: binding; conditions: 5 μM C223A, 100 μM compound, room temperature, 4 hrs
USP7 core C223A, sequence (Q93009 214-521 C223A limits assumed): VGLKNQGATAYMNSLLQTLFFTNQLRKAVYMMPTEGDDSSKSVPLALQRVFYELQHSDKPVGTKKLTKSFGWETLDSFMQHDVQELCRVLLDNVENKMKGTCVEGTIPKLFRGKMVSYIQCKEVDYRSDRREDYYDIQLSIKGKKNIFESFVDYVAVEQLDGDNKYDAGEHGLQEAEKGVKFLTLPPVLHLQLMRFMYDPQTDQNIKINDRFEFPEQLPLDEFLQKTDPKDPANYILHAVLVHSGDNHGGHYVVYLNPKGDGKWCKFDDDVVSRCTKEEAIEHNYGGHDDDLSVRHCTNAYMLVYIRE
Procedure: (§1) FIG. 4 provides data showing an example of the covalent irreversible nature of disclosed USP7 inhibitors. 5 μM purified USP7core WT or active site cysteine mutant C223A were incubated with 100 μM Compound 5 or DMSO at room temperature for 4 hrs, and then the protein/compound reaction products were mixed with equal volume of 0.1% Trifluoroacetic acid (TFA) before LC-MS injection. The samples were analyzed by reverse-phase liquid chromatography coupled to UV and MS detection (Agilent, 6220 Accurate-Mass Time-of-Flight (TOF) LC/MS). […] FIG. 4 provides data showing an example of the covalent irreversible nature of disclosed USP7 inhibitors. 5 μM purified USP7core WT or active site cysteine mutant C223A were incubated with 100 μM Compound 5 or DMSO at room temperature for 4 hrs, and then the protein/compound reaction products were mixed with equal volume of 0.1% Trifluoroacetic acid (TFA) before LC-MS injection. The samples were analyzed by reverse-phase liquid chromatography coupled to UV and MS detection (Agilent, 6220 Accurate-Mass Time-of-Flight (TOF) LC/MS).

[4] = tested on: Murine Tregs; assay: 3-day Treg suppression assay (CFSE-labeled T effector cell proliferation, FACS); assay type: cell-based; conditions: Tregs pre-treated with 10 μM for 2 h, washed (FIG. 7)
Procedure: FIG. 7 graphically illustrates the inhibition of Treg functions after treatment with USP7 inhibitor compound 5. Murine Tregs were pre-treated with compound 5 for 2 hrs, washed and incubated with carboxyfluorescein succinimidyl ester (CFSE) labeled T effector cells at varying concentrations for 3 days. T effector cell proliferation was monitored using FACS analysis. Percentage proliferation is plotted using Graphpad prism.
Initial in vitro determination of the effect of compounds on the Treg-Teff system was performed by co-culturing drug pretreated Treg cell with Teff cells for three days and determining the Teff proliferation by flow cytometry. The compounds that were active in enhancing Teff growth were then examined for their effect on biomarkers. The most interesting compounds were tested for their effect on tumor growth in immune competent mice inoculated with lung cancer cells subcutaneously.
3-day Treg suppression assay in which isolated Tregs were treated with DMSO or experimental compound, washed and added to wells in which T cell proliferation was induced by CD3 mAb plus APC; % proliferation of CFSE-labeled conventional (Tcon) cells is shown in blue for each Treg:Tcon ratio. […] Flow cytometry confirmed marked or moderate down-regulation of Foxp3 expression by Treg cells exposed to potential inhibitor for 2 hrs. […]

[5] = tested on: HDM2; assay: Immunoblot of HDM2 level in treated Jurkat cells; assay type: cell-based; conditions: immunoblot (FIG. 6)
Procedure: (§2) FIG. 6 graphically illustrates a decrease in USP7 oncogenic substrates HDM2 and UHRF1 levels in Jurkat cells treated with the USP7i compound 5. 20 μg total cell lysates from each samples were separated on 10% SDS-PAGE and immunoblotted with antibodies against HDM2, UHRF1 and Actin (loading control).
(§3) Jurkat cells were incubated with an exemplary compound of the present invention (e.g., compound 5), washed, and incubated for an additional 0-96 h. USP7 was immunoprecipitated from lysates and USP7 activity measured. […] Total cell deubiquitinase activity can be performed to determine selectivity of these compounds (FIG. 5C). These experiments delineate a simple, powerful biomarker for determining the dose-efficacy relationship in the pre-clinical/clinical evaluation of irreversible USP7 inhibitors. Inhibitors were also tested in cells for effects on various PD markers, including two major USP7 substrates, HDM2 and UHRF1.

[6] = tested on: UHRF1; assay: Immunoblot of UHRF1 level in treated Jurkat cells; assay type: cell-based; conditions: immunoblot (FIG. 6)
Procedure: as §2, §3

[7] = molecular target: T2, USP7core WT (Homo sapiens, UniProt Q93009); assay: LC-MS detection of covalent adduct with purified USP7core WT; assay type: binding; conditions: 5 μM USP7core WT, 100 μM compound, room temperature, 4 hrs
T2 construct: 5 μM purified USP7core WT or active site cysteine mutant C223A were incubated with 100 μM Compound 5
T2 sequence (Q93009 214-521 limits assumed): as the sequence (Q93009 214-521 C223A limits assumed) above, with A10C counted along it
Procedure: as §1

[8] = pooled analysis of 14 phase I-III studies, various doses; cited from earlier work

T1 sequence (Q93009 whole entry): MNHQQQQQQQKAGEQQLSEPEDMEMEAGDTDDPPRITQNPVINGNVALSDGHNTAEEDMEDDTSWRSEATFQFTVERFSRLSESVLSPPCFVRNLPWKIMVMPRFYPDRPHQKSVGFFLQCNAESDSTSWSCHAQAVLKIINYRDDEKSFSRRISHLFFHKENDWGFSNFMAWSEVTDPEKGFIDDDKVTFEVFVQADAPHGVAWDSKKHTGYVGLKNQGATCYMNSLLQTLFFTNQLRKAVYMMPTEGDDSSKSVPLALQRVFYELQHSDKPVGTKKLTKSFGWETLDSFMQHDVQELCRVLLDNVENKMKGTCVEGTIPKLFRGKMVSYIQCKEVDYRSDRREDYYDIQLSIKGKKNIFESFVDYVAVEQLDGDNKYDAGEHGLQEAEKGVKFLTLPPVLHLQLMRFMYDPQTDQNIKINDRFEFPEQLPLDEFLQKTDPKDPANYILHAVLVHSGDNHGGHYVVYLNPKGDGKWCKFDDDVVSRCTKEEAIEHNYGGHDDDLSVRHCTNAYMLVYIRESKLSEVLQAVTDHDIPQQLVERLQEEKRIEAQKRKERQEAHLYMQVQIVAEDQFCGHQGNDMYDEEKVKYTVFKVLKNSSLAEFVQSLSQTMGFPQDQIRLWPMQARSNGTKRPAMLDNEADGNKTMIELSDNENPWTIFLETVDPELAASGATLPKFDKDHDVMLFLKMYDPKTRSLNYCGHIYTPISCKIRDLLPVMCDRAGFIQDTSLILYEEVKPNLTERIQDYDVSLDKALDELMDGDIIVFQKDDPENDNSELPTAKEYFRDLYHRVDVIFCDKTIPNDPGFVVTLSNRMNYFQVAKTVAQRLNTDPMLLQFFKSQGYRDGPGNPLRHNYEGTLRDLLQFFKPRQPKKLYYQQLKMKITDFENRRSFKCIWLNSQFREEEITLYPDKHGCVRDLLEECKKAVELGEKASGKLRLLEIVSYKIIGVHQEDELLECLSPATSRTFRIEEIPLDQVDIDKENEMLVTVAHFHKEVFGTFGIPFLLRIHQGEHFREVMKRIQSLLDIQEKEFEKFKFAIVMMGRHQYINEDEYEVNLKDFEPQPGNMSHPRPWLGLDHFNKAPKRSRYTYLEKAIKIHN

CS(=O)(=O)c1cccc(NC(=O)c2cc([N+](=O)[O-])c(Sc3c(Cl)cncc3Cl)s2)c1 [Compound 5, 5-[(3,5-dichloropyridin-4-yl)sulfanyl]-N-[3-(methylsulfonyl)phenyl]-4-nitrothiophene-2-carboxamide]
USP7 catalytic activity returned after washout ([1]; washed, after 48 hours): about 55%
USP7 catalytic activity returned after washout ([1]; washed, after 72 hours): 68%
USP7 activity after pulse treatment ([1]; Jurkat cells, 10 μM for 2 h, washed, even after 72 h (FIG. 5B)): prolonged inhibition of USP7 activity
catalytic activity of isolated USP7 ([1]; Jurkat cells, incubation with inhibitor for 1 h (FIG. 5A)): significant inhibition of catalytic activity
TC1 lung tumor growth ([2]; Day 16, statistically significant p<0.05 (FIG. 8A, 8B)): inhibition of TC1 lung tumor growth
tumor regression ([2]; TC1 tumors (FIG. 8B)): complete tumor regression in several mice
covalent adduct formation with USP7 core C223A [3]: failed to form an adduct
Treg suppressive functions [4]: marked impairment of Treg suppressive functions
HDM2 level [5]: decrease
UHRF1 level [6]: decrease
covalent adduct formation with USP7 core [7]: formed a covalent adduct

ipilimumab
patients with immune-related adverse effects [8]: 64%

Reference: patent publication US9717717B1, “Methods of treating cancer through the inhibition of USP7 and immune system modulation” (Progenra, Inc., priority 2015, dated 2017)
